Measured values published in ChEMBL document CHEMBL1909294, “Translating clinical findings into knowledge in drug safety evaluation--drug induced liver injury prediction system (DILIps)” (PLoS Comput Biol, 2011).

Key:
[1] = system: Hepatotoxicity;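 on HepSE bilirubinemia: bilirubinemia hepatic side effect score drawn from the DILIps training data, a prediction system for drug-induced liver injury; call rule not given here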;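 on HepSE cholecystitis: Cholecystitis-related hepatic side effect score drawn from the DILIps (drug-induced liver injury prediction) training data set; call rule not given here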;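 on HepSE cholelithiasis: hepatic side effect score for cholelithiasis, drawn from the DILIps training data for predicting drug-induced liver injury; call rule not given here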;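 on HepSE cirrhosis: cirrhosis hepatic side effect score taken from the DILIps (drug-induced liver injury prediction) training set; call rule not given here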;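 on HepSE elevated liver function tests: hepatic side effect score for raised liver function tests, as recorded in the DILIps training set used for predicting drug-induced liver injury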; on HepSE hepatic failure: call rule not given here;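 on HepSE hepatomegaly: hepatic side effect score for hepatomegaly, taken from the training set of the DILIps drug-induced liver injury prediction system; call rule not given here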
[2] = system: Hepatotoxicity; remark: listed apart in the source;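 on HepSE bilirubinemia: bilirubinemia hepatic side effect score drawn from the DILIps training data, a prediction system for drug-induced liver injury; call rule not given here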;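 on HepSE cholecystitis: Cholecystitis-related hepatic side effect score drawn from the DILIps (drug-induced liver injury prediction) training data set; call rule not given here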;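 on HepSE cholelithiasis: hepatic side effect score for cholelithiasis, drawn from the DILIps training data for predicting drug-induced liver injury; call rule not given here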;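 on HepSE cirrhosis: cirrhosis hepatic side effect score taken from the DILIps (drug-induced liver injury prediction) training set; call rule not given here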;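 on HepSE elevated liver function tests: hepatic side effect score for raised liver function tests, as recorded in the DILIps training set used for predicting drug-induced liver injury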; on HepSE hepatic failure: call rule not given here;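 on HepSE hepatomegaly: hepatic side effect score for hepatomegaly, taken from the training set of the DILIps drug-induced liver injury prediction system; call rule not given here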
[3] = system: Hepatotoxicity; remark: listed apart in the source;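 on HepSE bilirubinemia: bilirubinemia hepatic side effect score drawn from the DILIps training data, a prediction system for drug-induced liver injury; call rule not given here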;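 on HepSE cholecystitis: Cholecystitis-related hepatic side effect score drawn from the DILIps (drug-induced liver injury prediction) training data set; call rule not given here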;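 on HepSE cholelithiasis: hepatic side effect score for cholelithiasis, drawn from the DILIps training data for predicting drug-induced liver injury; call rule not given here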;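 on HepSE cirrhosis: cirrhosis hepatic side effect score taken from the DILIps (drug-induced liver injury prediction) training set; call rule not given here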;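 on HepSE elevated liver function tests: hepatic side effect score for raised liver function tests, as recorded in the DILIps training set used for predicting drug-induced liver injury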; on HepSE hepatic failure: call rule not given here
[4] = system: Hepatotoxicity; remark: listed apart in the source;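 on HepSE bilirubinemia: bilirubinemia hepatic side effect score drawn from the DILIps training data, a prediction system for drug-induced liver injury; call rule not given here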;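 on HepSE cholecystitis: Cholecystitis-related hepatic side effect score drawn from the DILIps (drug-induced liver injury prediction) training data set; call rule not given here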;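 on HepSE cholelithiasis: hepatic side effect score for cholelithiasis, drawn from the DILIps training data for predicting drug-induced liver injury; call rule not given here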;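 on HepSE cirrhosis: cirrhosis hepatic side effect score taken from the DILIps (drug-induced liver injury prediction) training set; call rule not given here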;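 on HepSE elevated liver function tests: hepatic side effect score for raised liver function tests, as recorded in the DILIps training set used for predicting drug-induced liver injury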; on HepSE hepatic failure: call rule not given here
[5] = system: Hepatotoxicity; remark: listed apart in the source; on HepSE hepatic failure: call rule not given here
[6] = system: Hepatotoxicity; remark: listed apart in the source; on HepSE hepatic failure: call rule not given here
[7] = system: Hepatotoxicity; remark: listed apart in the source
[8] = system: Hepatotoxicity; remark: listed apart in the source
[9] = system: Hepatotoxicity; remark: listed apart in the source
[10] = system: Hepatotoxicity; remark: listed apart in the source
[11] = system: Hepatotoxicity; remark: listed apart in the source
[12] = system: Hepatotoxicity; remark: listed apart in the source
[13] = system: Hepatotoxicity; remark: listed apart in the source
[14] = system: Hepatotoxicity; remark: listed apart in the source

CC[C@@H]([C@H](C)O)n1ncn(-c2ccc(N3CCN(c4ccc(OC[C@@H]5CO[C@@](Cn6cncn6)(c6ccc(F)cc6F)C5)cc4)CC3)cc2)c1=O [POSACONAZOLE]
6: HepSE_Combined Scores [14]
0: HepSE_cholecystitis [2] | HepSE_cholelithiasis [3] | HepSE_cirrhosis [4] | HepSE_elevated liver function tests [5] | HepSE_hepatic necrosis [7] | HepSE_liver disease [11] | HepSE_liver fatty [12]
1: HepSE_bilirubinemia [1] | HepSE_hepatic failure [6] | HepSE_hepatitis [8] | HepSE_hepatomegaly [9] | HepSE_jaundice [10] | HepSE_liver function tests abnormal [13]

[Cl-].[K+] [POTASSIUM CHLORIDE]
0: HepSE_bilirubinemia [1] | HepSE_cholecystitis [2] | HepSE_cholelithiasis [3] | HepSE_cirrhosis [4] | HepSE_elevated liver function tests [5] | HepSE_hepatic failure [6] | HepSE_hepatic necrosis [7] | HepSE_hepatitis [8] | HepSE_hepatomegaly [9] | HepSE_jaundice [10] | HepSE_liver disease [11] | HepSE_liver fatty [12] | HepSE_liver function tests abnormal [13] | HepSE_Combined Scores [14]

C[n+]1ccccc1/C=N/O [PRALIDOXIME]
0: HepSE_bilirubinemia [1] | HepSE_cholecystitis [2] | HepSE_cholelithiasis [3] | HepSE_cirrhosis [4] | HepSE_elevated liver function tests [5] | HepSE_hepatic failure [6] | HepSE_hepatic necrosis [7] | HepSE_hepatitis [8] | HepSE_hepatomegaly [9] | HepSE_jaundice [10] | HepSE_liver disease [11] | HepSE_liver fatty [12] | HepSE_liver function tests abnormal [13] | HepSE_Combined Scores [14]

CCCN[C@H]1CCc2nc(N)sc2C1 [PRAMIPEXOLE]
2: HepSE_Combined Scores ([14]; Liver)
0: HepSE_bilirubinemia ([1]; Liver) | HepSE_cirrhosis ([4]; Liver) | HepSE_elevated liver function tests ([5]; Liver) | HepSE_hepatic failure ([6]; Liver) | HepSE_hepatic necrosis ([7]; Liver) | HepSE_hepatitis ([8]; Liver) | HepSE_hepatomegaly ([9]; Liver) | HepSE_jaundice ([10]; Liver) | HepSE_liver disease ([11]; Liver) | HepSE_liver fatty ([12]; Liver) | HepSE_liver function tests abnormal ([13]; Liver)
1: HepSE_cholecystitis ([2]; Liver) | HepSE_cholelithiasis ([3]; Liver)

CC[C@H](C)C(=O)O[C@H]1C[C@H](O)C=C2C=C[C@H](C)[C@H](CC[C@@H](O)C[C@@H](O)CC(=O)O)[C@H]21 [PRAVASTATIN]
4: HepSE_Combined Scores [14]
0: HepSE_bilirubinemia [1] | HepSE_cholecystitis [2] | HepSE_cholelithiasis [3] | HepSE_elevated liver function tests [5] | HepSE_hepatic failure [6] | HepSE_hepatomegaly [9] | HepSE_liver disease [11] | HepSE_liver fatty [12] | HepSE_liver function tests abnormal [13]
1: HepSE_cirrhosis [4] | HepSE_hepatic necrosis [7] | HepSE_hepatitis [8] | HepSE_jaundice [10]

COc1cc2nc(N3CCN(C(=O)c4ccco4)CC3)nc(N)c2cc1OC [PRAZOSIN]
0: HepSE_bilirubinemia [1] | HepSE_cholecystitis [2] | HepSE_cholelithiasis [3] | HepSE_cirrhosis [4] | HepSE_elevated liver function tests [5] | HepSE_hepatic failure [6] | HepSE_hepatic necrosis [7] | HepSE_hepatitis [8] | HepSE_hepatomegaly [9] | HepSE_jaundice [10] | HepSE_liver disease [11] | HepSE_liver fatty [12] | HepSE_liver function tests abnormal [13] | HepSE_Combined Scores [14]

CCOC(=O)O[C@]1(C(=O)COC(=O)CC)CC[C@H]2[C@@H]3CCC4=CC(=O)C=C[C@]4(C)[C@H]3[C@@H](O)C[C@@]21C [PREDNICARBATE]
0: HepSE_bilirubinemia [1] | HepSE_cholecystitis [2] | HepSE_cholelithiasis [3] | HepSE_cirrhosis [4] | HepSE_elevated liver function tests [5] | HepSE_hepatic failure [6] | HepSE_hepatic necrosis [7] | HepSE_hepatitis [8] | HepSE_hepatomegaly [9] | HepSE_jaundice [10] | HepSE_liver disease [11] | HepSE_liver fatty [12] | HepSE_liver function tests abnormal [13] | HepSE_Combined Scores [14]

C[C@]12C=CC(=O)C=C1CC[C@@H]1[C@@H]2[C@@H](O)C[C@@]2(C)[C@H]1CC[C@]2(O)C(=O)CO [PREDNISOLONE]
0: HepSE_bilirubinemia [1] | HepSE_cholecystitis [2] | HepSE_cholelithiasis [3] | HepSE_cirrhosis [4] | HepSE_elevated liver function tests [5] | HepSE_hepatic failure [6] | HepSE_hepatic necrosis [7] | HepSE_hepatitis [8] | HepSE_jaundice [10] | HepSE_liver disease [11] | HepSE_liver fatty [12] | HepSE_liver function tests abnormal [13]
1: HepSE_hepatomegaly [9] | HepSE_Combined Scores [14]

C[C@]12C=CC(=O)C=C1CC[C@@H]1[C@@H]2C(=O)C[C@@]2(C)[C@H]1CC[C@]2(O)C(=O)CO [PREDNISONE]
0: HepSE_bilirubinemia [1] | HepSE_cholecystitis [2] | HepSE_cholelithiasis [3] | HepSE_cirrhosis [4] | HepSE_elevated liver function tests [5] | HepSE_hepatic failure [6] | HepSE_hepatic necrosis [7] | HepSE_hepatitis [8] | HepSE_hepatomegaly [9] | HepSE_jaundice [10] | HepSE_liver disease [11] | HepSE_liver fatty [12] | HepSE_liver function tests abnormal [13] | HepSE_Combined Scores [14]

COc1cc(NC(C)CCCN)c2ncccc2c1 (configuration not stated) [PRIMAQUINE]
0: HepSE_bilirubinemia [1] | HepSE_cholecystitis [2] | HepSE_cholelithiasis [3] | HepSE_cirrhosis [4] | HepSE_elevated liver function tests [5] | HepSE_hepatic failure [6] | HepSE_hepatic necrosis [7] | HepSE_hepatitis [8] | HepSE_hepatomegaly [9] | HepSE_jaundice [10] | HepSE_liver disease [11] | HepSE_liver fatty [12] | HepSE_liver function tests abnormal [13] | HepSE_Combined Scores [14]

CCC1(c2ccccc2)C(=O)NCNC1=O [PRIMIDONE]
0: HepSE_bilirubinemia [1] | HepSE_cholecystitis [2] | HepSE_cholelithiasis [3] | HepSE_cirrhosis [4] | HepSE_elevated liver function tests [5] | HepSE_hepatic failure [6] | HepSE_hepatic necrosis [7] | HepSE_hepatitis [8] | HepSE_hepatomegaly [9] | HepSE_jaundice [10] | HepSE_liver disease [11] | HepSE_liver fatty [12] | HepSE_liver function tests abnormal [13] | HepSE_Combined Scores [14]

CCCN(CCC)S(=O)(=O)c1ccc(C(=O)O)cc1 [PROBENECID]
0: HepSE_bilirubinemia [1] | HepSE_cholecystitis [2] | HepSE_cholelithiasis [3] | HepSE_cirrhosis [4] | HepSE_elevated liver function tests [5] | HepSE_hepatic failure [6] | HepSE_hepatitis [8] | HepSE_hepatomegaly [9] | HepSE_jaundice [10] | HepSE_liver disease [11] | HepSE_liver fatty [12] | HepSE_liver function tests abnormal [13]
1: HepSE_hepatic necrosis [7] | HepSE_Combined Scores [14]

CCN(CC)CCNC(=O)c1ccc(N)cc1 [PROCAINAMIDE]
2: HepSE_Combined Scores [14]
0: HepSE_bilirubinemia [1] | HepSE_cholecystitis [2] | HepSE_cholelithiasis [3] | HepSE_cirrhosis [4] | HepSE_elevated liver function tests [5] | HepSE_hepatic necrosis [7] | HepSE_hepatitis [8] | HepSE_jaundice [10] | HepSE_liver disease [11] | HepSE_liver fatty [12] | HepSE_liver function tests abnormal [13]
1: HepSE_hepatic failure [6] | HepSE_hepatomegaly [9]
